We go through one molecule from US20260265299A1, “SYNTHESIS OF BICYCLE TOXIN CONJUGATES, AND INTERMEDIATES THEREOF” (priority 2023, published 2026).

Starred links: 1 amine or outer side, 2 acyl side, 3 side chain; linkers in the order of their positions; H or OH if unused. Non-standard residues stand in square brackets, D forms with d. Residues, ends and D or L forms follow the SMILES beside them. ξ: configuration not given here. *: point of attachment. Dolaproine = CO[C@@H]([C@@H]1CCCN1)[C@@H](C)C(=O)O; ξDil = CC[C@H](C)C([C@@H](CC(=O)[*:2])OC)N(C)[*:1]; PABC = O=C(OCc1ccc(N[*:1])cc1)[*:2]; Glutaryl = O=C(CCCC(=O)[*:2])[*:1]; X1 = C[C@@H](N*)[C@@H](O)c1ccccc1; Cit = NC(=O)NCCC[C@H](N)C(=O)O; NMeV = CN[C@H](C(=O)O)C(C)C

Type in all cases: physicochemical
The nature of data set [1]: Stress test of gvcMMAE at different drying temperature (HPLC). The settings on record: for HPLC/area % gvcMMAE: dry. The protocol:
3.3.13. Stress Test of gvcMMAE at Different Drying Temperature (Table 22 and 23)
Stress test of gvcMMAE at different drying temperatures was done. According to the result listed below, gvcMMAE was stable at 40° C. for 3 days.

The nature of data set [2]: DVS test (hygroscopicity). The protocol:
(Uptake 3.6% water on sorption curve between 40% RH and 80% RH, at 25° C.).

Data set [3] is described as follows: Solubility of gvcMMAE in different solvents (assay in mother liquor). To be noted: for Assay in ML (w/w %): 20-30° C., 0.5 h, free acid state. An excerpt: 3.3.6. Study the Solubility of gvcMMAE in Different Solvents (Table 10)
Solubility of gvcMMAE (free acid state) in different solvents (THF, DCM, MTBE, n-Heptane, iPrOAc, 1,4-dioxane) were investigated.

A short description of data set [4]: Moisture absorption experiment at 60% RH. The settings on record: 3 days. The protocol:
100 mg of gvcMMAE was stood at 60% RH condition to do a moisture absorption experiment. The solid state had no change (The weight changed to 103 mg) after 3 days.

On to `CC[C@H](C)C([C@@H](CC(=O)N1CCC[C@H]1[C@H](OC)[C@@H](C)C(=O)N[C@H](C)[C@@H](O)c1ccccc1)OC)N(C)C(=O)[C@@H](NC(=O)[C@H](C(C)C)N(C)C(=O)OCc1ccc(NC(=O)[C@H](CCCNC(N)=O)NC(=O)[C@@H](NC(=O)CCCC(=O)O)C(C)C)cc1)C(C)C` (stereo partly drawn) [gvcMMAE, Glutaryl-Val-Cit-PAB-MMAE] (Glutaryl-V[Cit][PABC][NMeV]V[ξDil][Dolaproine]-X1), for which the “HPLC/area % gvcMMAE” value came to 98.62 area % in data set [1] (20° C., 3 days); 98.65 area % in data set [1] (30° C., 3 days); 98.61 area % in data set [1] (40° C., 3 days); 98.52 area % in data set [1] (50° C., 3 days); 98.54 area % in data set [1] (before stress test). Moreover, the “Stability at drying temperature (in words)” value in data set [1] (40° C. for 3 days) is on record as “stable”. Besides, in data set [2] (80% RH at 25° C.), the “Hygroscopicity (DVS)” value was “hygroscopic”. For the same molecule, the “Water uptake on sorption curve” value in data set [2] (between 40% RH and 80% RH, at 25° C.) is 3.6%. Besides, the “Assay in ML (w/w %)” value in data set [3] (1,4-dioxane 20 v) is listed as 0.22 w/w %; in data set [3] (DCM 20 v), 0.00 w/w %; in data set [3] (MTBE 20 v), 0.00 w/w %; in data set [3] (N-heptane 20 v) it was 0.00 w/w %; in data set [3] (THF 20 v) it was 0.47 w/w %; in data set [3] (iPrOAc 20 v), 0.00 w/w %. Besides, the “Solubility in solvents (in words)” value in data set [3] (THF, DCM, MTBE, n-Heptane, iPrOAc, 1,4-dioxane) was “insoluble in most solvents”. Moreover, in data set [4] (100 mg), the “Solid state after moisture absorption” value is reported as “no change”. Moreover, in data set [4] (starting from 100 mg), the “Weight after moisture absorption” value was 103 mg.
